{
  "source": "patent US10507212B2",
  "about": "“Method for use of homopiperazinium compounds in the treatment of cancer” (UNIVERSITÉ LAVAL, priority 2014, dated 2019)",
  "key": {"SK-OV/3": {"system": "SK-OV/3", "test": "Anti-proliferative MTT assay, SK-OV/3", "format": "cell-based", "conditions": "Homo sapiens", "protocol": "(§1) The effect of ASM-024 on the growth of MCF7, SK-BR-3, MDA-MB-231, BT-474 (mammary adenocarcinomas), SK-OV/3 (ovary adenocarcinoma), PC3 (prostate adenocarcinoma) SK-MEL-28(skin melanoma) and C6 (tumor cell glioma) was evaluated. Cells were cultured in RPMI medium and incubated with different concentrations of ASM-024. Cell proliferation was measured on days 3 and 6 by the MTT colorimetric assay. Absorbance at 576-690 nm was analyzed with a microplate reader and expressed as optical density (OD) and as a percentage of the value of corresponding untreated cells. The IC50 was determined as the drug concentration required to inhibit cell growth by 50% from a plot of percent cell viability from control untreated cells versus treated cells."}, "MCF7": {"system": "MCF7", "test": "Anti-proliferative MTT assay, MCF7", "format": "cell-based", "conditions": "Homo sapiens", "protocol": "as §1"}, "[1]": {"system": "A549 human lung carcinoma cells", "test": "In vivo antitumor assay, A549 xenograft in Balb/c nude mice (Example 29)", "conditions": "day 49; ASM-024 45 mg/kg s.c. daily day 14-38; taxol 10 mg/kg i.p. days 21, 28, 35; cisplatin 2.5 mg/kg i.p. days 28, 35", "protocol": "For the in vivo antitumor assay, A549 human lung carcinoma cells (3.5×106) in 50% F12K medium (Matrigel) were implanted subcutaneously in the flank of Balb/c nude mice (nu/nu, Charles River) and allowed to grow for 14 days. ASM-024 was administered daily by subcutaneous delivery at the dose of 45 mg/kg from day 14 to day 38 post cell inoculation. Taxol was administrated intraperitoneally at the dose of 10 mg/kg on days 21, 28 and 35. Cisplatin was administrated intraperioneally at the dose of 2.5 mg/kg on days 28 and 35. From day 14 to day 49, tumor length and width were measured once or twice a week with a caliper and tumor volume calculated according to the formula Volume=(width2×length)/2."}, "BT-474": {"system": "BT-474", "test": "Anti-proliferative MTT assay, BT-474", "format": "cell-based", "conditions": "Homo sapiens", "protocol": "as §1"}, "C6": {"system": "C6", "test": "Anti-proliferative MTT assay, C6", "format": "cell-based", "conditions": "Rattus norvegicus", "protocol": "as §1"}, "SK-BR-3": {"system": "SK-BR-3", "test": "Anti-proliferative MTT assay, SK-BR-3", "format": "cell-based", "conditions": "Homo sapiens", "protocol": "as §1"}, "MDA-MB-231": {"system": "MDA-MB-231", "test": "Anti-proliferative MTT assay, MDA-MB-231", "format": "cell-based", "conditions": "Homo sapiens", "protocol": "as §1\nFIGS. 5A and 5B illustrate the observed results for the MDA-MB-231 mammary/breast gland adenocarcinoma assay. Cells were incubated with the dose drug shown and growth measured at the days indicated. In FIG. 5A the data is expressed as optical density (OD) and in FIG. 5B as a percentage of the value of corresponding untreated cells. P<0.05 compared to control at same day by Student t-test"}, "PC3": {"system": "PC3", "test": "Anti-proliferative MTT assay, PC3", "format": "cell-based", "conditions": "Homo sapiens", "protocol": "as §1"}, "[2]": {"system": "A549 adenocarcinoma cell line", "test": "Cell proliferation assay, A549 (MTT)", "conditions": "for IC50: Tosylate", "protocol": "(§2) In vitro experiments were conducted on four cancer cell lines: the A549 adenocarcinoma cell line, the H520 squamous cell carcinoma the H82 small cell lung carcinoma and Calu 3 lung adenocarcinoma. The A549 tumor cells, were plated at a density of 1.5×10^4 cells per mL and let to adhere on 96-well microplates in F12K cell culture medium enriched with 10% fetal calf serum (FCS). The H520, H82 and Calu 3 tumor cells were plated at a density of 5×10^4 cells per mL in RPMI+10% FCS. After 24 h in culture, the medium was changed and cells were exposed to ASM-024 at concentrations ranging from 10^−7M to 10^−3M (FIGS. 1A-1C). After 3 and 6 days in culture, cell growth was quantified using the MTT colorimetric assay (M2128, Sigma) at 575-690 nm or the Cell Titer fluorescence assay (G8080, Promega) at 560/590 nm.\n(§3) In an another set of experiments, a series of 16 other homopiperazinium compounds, in addition to ASM-024, were tested for their anti-proliferative effect on the four tumor cell lines described above after up to 6 days in culture at concentrations of 10^-7M to 10^-3M. (FIGS. 4A-4E) Cell growth was quantified using the MTT colorimetric assay for the A-549, H520 and Calu 3 cell lines and the CellTiter Fluorescence assay.for the H82 tumor cell line These are established method of determining viable cell number in proliferation studies."}, "[3]": {"system": "H82 small cell lung carcinoma", "test": "Cell proliferation assay, H82 (CellTiter fluorescence)", "format": "cell-based", "conditions": "for IC50: Homo sapiens", "protocol": "as §2, §3"}, "SK-MEL-28": {"system": "SK-MEL-28", "test": "Anti-proliferative MTT assay, SK-MEL-28", "format": "cell-based", "conditions": "Homo sapiens", "protocol": "as §1"}, "[4]": {"system": "H520 squamous cell carcinoma", "test": "Cell proliferation assay, H520 (MTT)", "format": "cell-based", "conditions": "for IC50: Tosylate", "protocol": "as §2, §3"}, "[5]": {"system": "Calu 3 lung adenocarcinoma", "test": "Cell proliferation assay, Calu 3 (MTT)", "format": "cell-based", "conditions": "Homo sapiens", "protocol": "as §2, §3"}},
  "note": "Like-named read-outs stand apart in the source and are kept apart here.",
  "data": [
    {"compound": "CC[N+]1(CC)CCCN(c2ccccc2)CC1.Cc1ccc(S(=O)(=O)[O-])cc1", "note": "[ASM-024, 1,1-Diethyl-4-phenyl-homopiperazinium Tosylate]", "values": [
      {"measurement": "IC50", "setting": "SK-OV/3; 72 h, SK-OV/3, day 3, read-out: IC50 Day 3", "result": "> 600", "unit": "µM"},
      {"measurement": "IC50", "setting": "SK-OV/3; 144 h, SK-OV/3, day 6, read-out: IC50 Day 6", "result": "618 ± 125", "unit": "µM"},
      {"measurement": "IC50", "setting": "MCF7; 72 h, MCF7, day 3, read-out: IC50 Day 3", "result": "470 ± 364", "unit": "µM"},
      {"measurement": "IC50", "setting": "MCF7; 144 h, MCF7, day 6, read-out: IC50 Day 6", "result": "209 ± 42", "unit": "µM"},
      {"measurement": "A549 human carcinoma tumor growth (tumor volume)", "setting": "[1]", "result": "decrease in A549 human carcinoma tumor growth"},
      {"measurement": "IC50", "setting": "BT-474; 72 h, BT-474, day 3, read-out: IC50 Day 3", "result": "> 1000", "unit": "µM"},
      {"measurement": "IC50", "setting": "BT-474; 144 h, BT-474, day 6, read-out: IC50 Day 6", "result": "644 ± 230", "unit": "µM"},
      {"measurement": "IC50", "setting": "C6; 72 h, C6, day 3, read-out: IC50 Day 3", "result": "353 ± 52", "unit": "µM"},
      {"measurement": "IC50", "setting": "C6; 144 h, C6, day 6, read-out: IC50 Day 6", "result": "186 ± 27", "unit": "µM"},
      {"measurement": "IC50", "setting": "SK-BR-3; 72 h, SK-BR-3, day 3, read-out: IC50 Day 3", "result": "> 1000", "unit": "µM"},
      {"measurement": "IC50", "setting": "SK-BR-3; 144 h, SK-BR-3, day 6, read-out: IC50 Day 6", "result": "197 ± 67", "unit": "µM"},
      {"measurement": "IC50", "setting": "MDA-MB-231; 72 h, MDA-MB-231, day 3, read-out: IC50 Day 3", "result": "> 1000", "unit": "µM"},
      {"measurement": "IC50", "setting": "MDA-MB-231; 144 h, MDA-MB-231, day 6, read-out: IC50 Day 6", "result": "661 ± 115", "unit": "µM"},
      {"measurement": "IC50", "setting": "PC3; PC-3, 72 h, PC3, day 3, read-out: IC50 Day 3", "result": "> 700", "unit": "µM"},
      {"measurement": "IC50", "setting": "PC3; PC-3, 144 h, PC3, day 6, read-out: IC50 Day 6", "result": "176 ± 29", "unit": "µM"},
      {"measurement": "cell proliferation / cell growth inhibition (in words)", "setting": "[2]; A549, day 3 and day 6, text on figures", "result": "dose-dependent decrease in cell proliferation"},
      {"measurement": "IC50", "setting": "[2]; read-out: IC50 Day 3, A549, day 3 in culture", "result": "56 ± 20", "unit": "µM"},
      {"measurement": "IC50", "setting": "[2]; read-out: IC50 Day 6, A549, day 6 in culture", "result": "59 ± 21", "unit": "µM"},
      {"measurement": "cell proliferation / cell growth inhibition (in words)", "setting": "[3]; H82, day 3 and day 6, text on figures", "result": "dose-dependent decrease in cell proliferation"},
      {"measurement": "IC50", "setting": "[3]; NCI-H82, 72 h, H82, day 3 in culture, read-out: IC50 Day 3", "result": "314 ± 205", "unit": "µM"},
      {"measurement": "IC50", "setting": "[3]; NCI-H82, 144 h, H82, day 6 in culture, read-out: IC50 Day 6", "result": "218 ± 76", "unit": "µM"},
      {"measurement": "IC50", "setting": "SK-MEL-28; 72 h, SK-MEL-28, day 3, read-out: IC50 Day 3", "result": "> 800", "unit": "µM"},
      {"measurement": "IC50", "setting": "SK-MEL-28; 144 h, SK-MEL-28, day 6, read-out: IC50 Day 6", "result": "259 ± 63", "unit": "µM"},
      {"measurement": "cell proliferation / cell growth inhibition (in words)", "setting": "[4]; H520, day 3 and day 6, text on figures", "result": "dose-dependent decrease in cell proliferation"},
      {"measurement": "IC50", "setting": "[4]; H520, day 3 in culture, read-out: IC50 Day 3", "result": "468 ± 287", "unit": "µM"},
      {"measurement": "IC50", "setting": "[4]; H520, day 6 in culture, read-out: IC50 Day 6", "result": "257 ± 257", "unit": "µM"},
      {"measurement": "IC50", "setting": "[5]; 72 h, Calu 3, day 3 in culture, read-out: IC50 Day 3", "result": "685 ± 320", "unit": "µM"},
      {"measurement": "IC50", "setting": "[5]; 144 h, Calu 3, day 6 in culture, read-out: IC50 Day 6", "result": "192 ± 217", "unit": "µM"}
    ]}
  ]
}
